From ChEMBL document CHEMBL1135235, “Structure-activity relationships of oxime neurokinin antagonists: oxime modifications” (Bioorg Med Chem Lett, 2002) come the findings set out here.

Holding throughout (format): cell-based
Assay [1] concerns the target T1, Substance-K receptor (Homo sapiens) (UniProt P21452).
T1 sequence (whole entry): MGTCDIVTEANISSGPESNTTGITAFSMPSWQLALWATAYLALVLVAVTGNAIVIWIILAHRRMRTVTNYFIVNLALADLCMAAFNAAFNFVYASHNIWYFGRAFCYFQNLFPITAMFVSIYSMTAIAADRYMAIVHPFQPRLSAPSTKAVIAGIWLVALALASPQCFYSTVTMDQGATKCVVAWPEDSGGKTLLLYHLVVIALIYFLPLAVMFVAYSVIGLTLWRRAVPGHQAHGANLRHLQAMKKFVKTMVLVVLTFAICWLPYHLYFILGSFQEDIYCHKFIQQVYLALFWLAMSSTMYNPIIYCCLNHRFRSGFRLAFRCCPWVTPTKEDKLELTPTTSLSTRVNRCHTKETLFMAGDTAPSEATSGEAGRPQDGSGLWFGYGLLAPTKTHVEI
Kind of assay: (§1) Binding affinity against recombinant human tachykinin receptor 2 in CHO cells using [3H]NKA as a radioligand. Conditions: concentration not given here. Details: concentration or dose not given beside the values.

The target of assay [2] is T2, Substance-P receptor (Homo sapiens, UniProt P25103). Nature of the assay: The compound was evaluated for the binding affinity against recombinant human Tachykinin receptor 1 in CHO cells using [3H]-Sar SP as a radioligand. Particulars: concentration not given here.
T2 sequence (P25103 whole entry): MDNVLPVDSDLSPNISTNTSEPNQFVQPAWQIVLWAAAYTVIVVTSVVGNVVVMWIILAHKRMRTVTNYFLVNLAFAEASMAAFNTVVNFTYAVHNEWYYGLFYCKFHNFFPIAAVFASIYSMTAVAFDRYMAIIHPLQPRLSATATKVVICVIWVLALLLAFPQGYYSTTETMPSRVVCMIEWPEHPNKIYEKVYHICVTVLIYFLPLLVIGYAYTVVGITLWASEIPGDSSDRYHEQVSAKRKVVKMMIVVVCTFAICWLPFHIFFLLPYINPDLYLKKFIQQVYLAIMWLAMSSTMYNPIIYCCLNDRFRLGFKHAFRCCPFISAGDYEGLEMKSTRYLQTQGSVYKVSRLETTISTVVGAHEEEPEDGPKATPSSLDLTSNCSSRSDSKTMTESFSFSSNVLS
The target of assay [3] is T3, Substance-K receptor (Homo sapiens, UniProt P21452).
T3 sequence (P21452 whole entry): T1 sequence (whole entry)
The assay is described as §1.

Assay [4] deals with T2, Substance-P receptor. Kind of assay: Binding affinity against recombinant human tachykinin receptor 1 in CHO cells using [3H]-Sar SP as a radioligand.

For the molecule `OC1(c2ccccc2)CCN(CCC(/C(COCc2cc(C(F)(F)F)cc(C(F)(F)F)c2)=N/Oc2ccccc2)c2ccc(Cl)c(Cl)c2)CC1` (centres undefined), the inhibition in assay [1] is 23%; in assay [2] it was 32%.
For the molecule `CNC(=O)CO/N=C(\COCc1cc(C(F)(F)F)cc(C(F)(F)F)c1)C(CCN1CCC(O)(c2ccccc2)CC1)c1ccc(Cl)c(Cl)c1` (centres undefined), the Ki in assay [3] was found to be 45 nM; in assay [4], 24 nM.
`COCCO/N=C(\COCc1cc(C(F)(F)F)cc(C(F)(F)F)c1)C(CCN1CCC(O)(c2ccccc2)CC1)c1ccc(Cl)c(Cl)c1` (centres undefined): the inhibition constant Ki was 50 nM in assay [3] and 7 nM in assay [4].
Regarding `CN(C/C(=N\OCCC[S+](C)[O-])C(CCN1CCC(N2CCCCC2=O)CC1)c1ccc(Cl)c(Cl)c1)C(=O)c1cc(Cl)cc(Cl)c1` (centres undefined), the Ki was 3.5 nM in assay [3] and 0.8 nM in assay [4].
As to `CO/C=C(\COCc1cc(C(F)(F)F)cc(C(F)(F)F)c1)C(CCN1CCC(O)(c2ccccc2)CC1)c1ccc(Cl)c(Cl)c1` (centres undefined), in assay [4], the Ki turned out to be 33 nM. In addition, in assay [1], the inhibition was determined as 35%.
In the case of `CN(C/C(=N\OCCCS(C)(=O)=O)C(CCN1CCC(N2CCCCC2=O)CC1)c1ccc(Cl)c(Cl)c1)C(=O)c1cc(Cl)cc(Cl)c1` (centres undefined), the figures for the Ki in assay [3] and in assay [4] were 3.2 nM and 0.9 nM, respectively.
On the same counts, the results for `COCCNC(=O)CO/N=C(\CN(C)C(=O)c1cc(Cl)cc(Cl)c1)C(CCN1CCC(N2CCCCC2=O)CC1)c1ccc(Cl)c(Cl)c1` (centres undefined) are 48 nM and 2.2 nM.
In the same order, the values of `CN(C/C(=N\OCCCS(=O)(=O)O)C(CCN1CCC(N2CCCCC2=O)CC1)c1ccc(Cl)c(Cl)c1)C(=O)c1cc(Cl)cc(Cl)c1` (centres undefined) are 2.7 nM and 3.3 nM.
In the same order, the values of `CN(C)/N=C(\COCc1cc(C(F)(F)F)cc(C(F)(F)F)c1)C(CCN1CCC(O)(c2ccccc2)CC1)c1ccc(Cl)c(Cl)c1` (centres undefined) are 24 nM and 38 nM.
With `CN(C/C(=N\OCCn1ccnc1)C(CCN1CCC(N2CCCCC2=O)CC1)c1ccc(Cl)c(Cl)c1)C(=O)c1cc(Cl)cc(Cl)c1` (centres undefined), the values for the Ki in assay [3] and in assay [4] were 5.4 nM and 2.8 nM, respectively.
In the same order, the values of `OCCO/N=C(\COCc1cc(C(F)(F)F)cc(C(F)(F)F)c1)C(CCN1CCC(O)(c2ccccc2)CC1)c1ccc(Cl)c(Cl)c1` (centres undefined) are 14 nM and 20 nM.
On the same counts, the results for `COCCO/N=C(\CN(C)C(=O)c1cc(Cl)cc(Cl)c1)C(CCN1CCC(N2CCCCC2=O)CC1)c1ccc(Cl)c(Cl)c1` (centres undefined) are 3.1 nM and 2.4 nM.
With `C=CCO/N=C(\COCc1cc(C(F)(F)F)cc(C(F)(F)F)c1)C(CCN1CCC(O)(c2ccccc2)CC1)c1ccc(Cl)c(Cl)c1` (centres undefined), the Ki in assay [3] stood at 215 nM; in assay [4], 100 nM.
On to `COCO/N=C(\COCc1cc(C(F)(F)F)cc(C(F)(F)F)c1)C(CCN1CCC(O)(c2ccccc2)CC1)c1ccc(Cl)c(Cl)c1` (centres undefined), for which the Ki in assay [3] is 42 nM; in assay [4], 49 nM.
In the same order, the values of `O=C(COCc1cc(C(F)(F)F)cc(C(F)(F)F)c1)C(CCN1CCC(O)(c2ccccc2)CC1)c1ccc(Cl)c(Cl)c1` (centres undefined) are 236 nM and 15 nM.
Regarding `CN(C/C(=N\OCCCn1ccnc1)C(CCN1CCC(N2CCCCC2=O)CC1)c1ccc(Cl)c(Cl)c1)C(=O)c1cc(Cl)cc(Cl)c1` (centres undefined), the values for the Ki in assay [3] and in assay [4] were 6.8 nM and 1.6 nM, respectively.
In the same order, the values of `CN(C/C(=N\OCc1c[nH]cn1)C(CCN1CCC(N2CCCCC2=O)CC1)c1ccc(Cl)c(Cl)c1)C(=O)c1cc(Cl)cc(Cl)c1` (centres undefined) are 8.5 nM and 2.2 nM.
In the same order, the values of `CN(C/C(=N\OCCCn1cccn1)C(CCN1CCC(N2CCCCC2=O)CC1)c1ccc(Cl)c(Cl)c1)C(=O)c1cc(Cl)cc(Cl)c1` (centres undefined) are 25 nM and 1.7 nM.
On the same counts, the results for `CNC(=O)NCCCO/N=C(\CN(C)C(=O)c1cc(Cl)cc(Cl)c1)C(CCN1CCC(N2CCCCC2=O)CC1)c1ccc(Cl)c(Cl)c1` (centres undefined) are 1.7 nM and 1 nM.
In the case of `N#CO/N=C(\COCc1cc(C(F)(F)F)cc(C(F)(F)F)c1)C(CCN1CCC(O)(c2ccccc2)CC1)c1ccc(Cl)c(Cl)c1` (centres undefined), the Ki was determined as 19 nM in assay [3] and 15 nM in assay [4].
On to `CONC(COCc1cc(C(F)(F)F)cc(C(F)(F)F)c1)C(CCN1CCC(O)(c2ccccc2)CC1)c1ccc(Cl)c(Cl)c1` (centres undefined), for which the figures for the Ki in assay [3] and in assay [4] were 350 nM and 25 nM, respectively.
In the same order, the values of `CN(C/C(=N\OCC#N)C(CCN1CCC(N2CCCCC2=O)CC1)c1ccc(Cl)c(Cl)c1)C(=O)c1cc(Cl)cc(Cl)c1` (centres undefined) are 1.4 nM and 1.5 nM.
On the same counts, the results for `CN(C/C(=N\OCC(=O)O)C(CCN1CCC(N2CCCCC2=O)CC1)c1ccc(Cl)c(Cl)c1)C(=O)c1cc(Cl)cc(Cl)c1` (centres undefined) are 394 nM and 0.7 nM.
In the same order, the values of `CN(C/C(=N\OCC(N)=O)C(CCN1CCC(N2CCCCC2=O)CC1)c1ccc(Cl)c(Cl)c1)C(=O)c1cc(Cl)cc(Cl)c1` (centres undefined) are 2 nM and 0.9 nM.
Consider `N=C(CO/N=C(\COCc1cc(C(F)(F)F)cc(C(F)(F)F)c1)C(CCN1CCC(O)(c2ccccc2)CC1)c1ccc(Cl)c(Cl)c1)NO` (centres undefined), for which the results for the Ki in assay [3] and in assay [4] were 19 nM and 17 nM, respectively.
Consider `CC/C=C(\COCc1cc(C(F)(F)F)cc(C(F)(F)F)c1)C(CCN1CCC(O)(c2ccccc2)CC1)c1ccc(Cl)c(Cl)c1` (centres undefined), for which the Ki in assay [4] stood at 57 nM. The inhibition in assay [1] turned out to be 28%.
On to `CCO/N=C(\COCc1cc(C(F)(F)F)cc(C(F)(F)F)c1)C(CCN1CCC(O)(c2ccccc2)CC1)c1ccc(Cl)c(Cl)c1` (centres undefined), for which the Ki in assay [3] is 107 nM; in assay [4] it was 81 nM.
On the same counts, the results for `CN(C/C(=N\OCC(=N)NO)[C@H](CCN1CCC(N2CCCCC2=O)CC1)c1ccc(Cl)c(Cl)c1)C(=O)c1cc(Cl)cc(Cl)c1` are 0.5 nM and 0.4 nM.
For the molecule `CN(C)CCO/N=C(\COCc1cc(C(F)(F)F)cc(C(F)(F)F)c1)C(CCN1CCC(O)(c2ccccc2)CC1)c1ccc(Cl)c(Cl)c1` (centres undefined), the Ki in assay [4] came out at 103 nM. Further, in assay [1], the inhibition was determined as 11%.
With `CN(C/C(=N\OCCCNS(C)(=O)=O)C(CCN1CCC(N2CCCCC2=O)CC1)c1ccc(Cl)c(Cl)c1)C(=O)c1cc(Cl)cc(Cl)c1` (centres undefined), the Ki in assay [3] was determined as 4.5 nM; in assay [4] it was 1.2 nM.
In the case of `O=C(O)CO/N=C(\COCc1cc(C(F)(F)F)cc(C(F)(F)F)c1)C(CCN1CCC(O)(c2ccccc2)CC1)c1ccc(Cl)c(Cl)c1` (centres undefined), the Ki in assay [4] is 8 nM. Also, the inhibition in assay [1] was 20%.
Consider `CN(C/C(=N\OCCCn1cncn1)C(CCN1CCC(N2CCCCC2=O)CC1)c1ccc(Cl)c(Cl)c1)C(=O)c1cc(Cl)cc(Cl)c1` (centres undefined), for which the Ki in assay [3] worked out at 4.8 nM; in assay [4] it was 0.7 nM.
In the same order, the values of `CN(C/C(=N\OC(F)F)C(CCN1CCC(N2CCCCC2=O)CC1)c1ccc(Cl)c(Cl)c1)C(=O)c1cc(Cl)cc(Cl)c1` (centres undefined) are 5 nM and 1.7 nM.
`CN(C/C(=N\OCC(=O)NO)C(CCN1CCC(N2CCCCC2=O)CC1)c1ccc(Cl)c(Cl)c1)C(=O)c1cc(Cl)cc(Cl)c1` (centres undefined): the Ki turned out to be 4.2 nM in assay [3] and 1.2 nM in assay [4].
In the same order, the values of `CSCCCO/N=C(\CN(C)C(=O)c1cc(Cl)cc(Cl)c1)C(CCN1CCC(N2CCCCC2=O)CC1)c1ccc(Cl)c(Cl)c1` (centres undefined) are 11.5 nM and 7.4 nM.
On the same counts, the results for `CN(C/C(=N\OCCC[N+](C)(C)C)C(CCN1CCC(N2CCCCC2=O)CC1)c1ccc(Cl)c(Cl)c1)C(=O)c1cc(Cl)cc(Cl)c1` (centres undefined) are 590 nM and 1.8 nM.
On the same counts, the results for `CN(C/C(=N\OCCCO)C(CCN1CCC(N2CCCCC2=O)CC1)c1ccc(Cl)c(Cl)c1)C(=O)c1cc(Cl)cc(Cl)c1` (centres undefined) are 1.5 nM and 0.7 nM.
As to `CN(C/C(=N\OCC(C)(C)O)C(CCN1CCC(N2CCCCC2=O)CC1)c1ccc(Cl)c(Cl)c1)C(=O)c1cc(Cl)cc(Cl)c1` (centres undefined), the Ki in assay [3] was 23 nM; in assay [4] it was 1.9 nM.
For the molecule `CN(C/C(=N\OCCO)C(CCN1CCC(N2CCCCC2=O)CC1)c1ccc(Cl)c(Cl)c1)C(=O)c1cc(Cl)cc(Cl)c1` (centres undefined), the Ki in assay [3] came to 0.8 nM; in assay [4], 0.6 nM.
On the same counts, the results for `CN(C/C(=N\OCCCN)C(CCN1CCC(N2CCCCC2=O)CC1)c1ccc(Cl)c(Cl)c1)C(=O)c1cc(Cl)cc(Cl)c1` (centres undefined) are 8.8 nM and 0.7 nM.
In the same order, the values of `NC(=O)CO/N=C(\COCc1cc(C(F)(F)F)cc(C(F)(F)F)c1)C(CCN1CCC(O)(c2ccccc2)CC1)c1ccc(Cl)c(Cl)c1` (centres undefined) are 58 nM and 17 nM.
In the same order, the values of `COC(=O)CO/N=C(\COCc1cc(C(F)(F)F)cc(C(F)(F)F)c1)C(CCN1CCC(O)(c2ccccc2)CC1)c1ccc(Cl)c(Cl)c1` (centres undefined) are 198 nM and 25 nM.
For `CN(C/C(=N\OCF)C(CCN1CCC(N2CCCCC2=O)CC1)c1ccc(Cl)c(Cl)c1)C(=O)c1cc(Cl)cc(Cl)c1` (centres undefined), the Ki in assay [3] and in assay [4] was 0.8 nM throughout.
Regarding `COC(=O)CO/N=C(\CN(C)C(=O)c1cc(Cl)cc(Cl)c1)C(CCN1CCC(N2CCCCC2=O)CC1)c1ccc(Cl)c(Cl)c1` (centres undefined), the inhibition constant (Ki) in assay [3] worked out at 16.7 nM; in assay [4] it was 4.7 nM.
For the molecule `CN(C/C(=N\OCCCn1cnnn1)C(CCN1CCC(N2CCCCC2=O)CC1)c1ccc(Cl)c(Cl)c1)C(=O)c1cc(Cl)cc(Cl)c1` (centres undefined), the results for the Ki in assay [3] and in assay [4] were 17 nM and 0.8 nM, respectively.
On the same counts, the results for `CN(C/C(=N\OCCN1CCNCC1)C(CCN1CCC(N2CCCCC2=O)CC1)c1ccc(Cl)c(Cl)c1)C(=O)c1cc(Cl)cc(Cl)c1` (centres undefined) are 50 nM and 0.5 nM.
In the same order, the values of `CO/N=C(\CN(C)C(=O)c1cc(Cl)cc(Cl)c1)C(CCN1CCC(N2CCCCC2=O)CC1)c1ccc(Cl)c(Cl)c1` (centres undefined) are 1.6 nM and 4.7 nM.
